According to US20250228983A1, “PROBES FOR CELLULAR SENESCENCE” (UNIVERSITY OF FLORIDA RESEARCH FOUNDATION, INCORPORATED, priority 2022, published 2025):

Assays:
[1] = target: bovine serum albumin (BSA) (Bos taurus, UniProt P02769); test: In gel fluorescence nonspecific labeling of BSA; type: biochemical; settings: 10 μM probe, 50 μg BSA, 50 μL PBS, 37° C., 2 h; compared with NIR-BG2
Experimental: (§1) FIG. 4. Compare labeling efficiency using in gel fluorescence. 10 μM of NIR-BG2, NIR-BG3 or NIR-BG4 is incubated with 10 units of β-gal and/or 50 μg of BSA in total volume of 50 μL PBS solution were incubated at 37° C. for 2 h. Each lane was loaded with 10 μL of the reaction solution.
(§2) In certain examples, two carbamate analogues were synthesized: NIR-BG3 carrying ethyl carbamate and NIR-BG4 carrying an endocyclic carbamate. To compare these two analogues with NIR-BG2, the three probes were incubated with recombinant β-galactosidase (p-gal) and bovine serum albumin (BSA) and the labeling efficiency of these probes on P-gal and BSA was compared using gel electrophoresis.

[2] = test system: CT26.WT and CT26.CL25 cells (stably transfected with LacZ); test: Fluorescent cell imaging and flow cytometry of CT26.WT and CT26.CL25 cells; type: cell-based; settings: 10 μM probe
Experimental: FIG. 5. FIG. 5A: Fluorescent cell imaging of CT26. WT and CT26.CL25 cells after incubating with 10 μM of NIR-BG2 or NIR-BG3 in serum free medium for 2 hours at 37° C. Cells were fixed, permeabilized with 0.5% Triton X-100 and stained with DAPI. Scale bar: […]. FIG. 5B: Flow cytometry and FIG. 5C quantification of fluorescence in CT26.WT and CT26.CL25 cells after incubating with 10 μM of NIR-BG2 or NIR-BG3.
NIR-BG2 and NIR-BG3 were also compared in CT26.WT and CT26.CL25 that are stably transfected with LacZ.

[3] = target: recombinant β-galactosidase (β-gal) (Escherichia coli, UniProt P00722); test: In gel fluorescence labeling efficiency on recombinant β-galactosidase; type: biochemical; settings: 10 μM probe, 10 units β-gal and/or 50 μg BSA, 50 μL PBS, 37° C., 2 h; compared with NIR-BG2
Sequence of recombinant β-galactosidase (β-gal) (P00722 2-1024): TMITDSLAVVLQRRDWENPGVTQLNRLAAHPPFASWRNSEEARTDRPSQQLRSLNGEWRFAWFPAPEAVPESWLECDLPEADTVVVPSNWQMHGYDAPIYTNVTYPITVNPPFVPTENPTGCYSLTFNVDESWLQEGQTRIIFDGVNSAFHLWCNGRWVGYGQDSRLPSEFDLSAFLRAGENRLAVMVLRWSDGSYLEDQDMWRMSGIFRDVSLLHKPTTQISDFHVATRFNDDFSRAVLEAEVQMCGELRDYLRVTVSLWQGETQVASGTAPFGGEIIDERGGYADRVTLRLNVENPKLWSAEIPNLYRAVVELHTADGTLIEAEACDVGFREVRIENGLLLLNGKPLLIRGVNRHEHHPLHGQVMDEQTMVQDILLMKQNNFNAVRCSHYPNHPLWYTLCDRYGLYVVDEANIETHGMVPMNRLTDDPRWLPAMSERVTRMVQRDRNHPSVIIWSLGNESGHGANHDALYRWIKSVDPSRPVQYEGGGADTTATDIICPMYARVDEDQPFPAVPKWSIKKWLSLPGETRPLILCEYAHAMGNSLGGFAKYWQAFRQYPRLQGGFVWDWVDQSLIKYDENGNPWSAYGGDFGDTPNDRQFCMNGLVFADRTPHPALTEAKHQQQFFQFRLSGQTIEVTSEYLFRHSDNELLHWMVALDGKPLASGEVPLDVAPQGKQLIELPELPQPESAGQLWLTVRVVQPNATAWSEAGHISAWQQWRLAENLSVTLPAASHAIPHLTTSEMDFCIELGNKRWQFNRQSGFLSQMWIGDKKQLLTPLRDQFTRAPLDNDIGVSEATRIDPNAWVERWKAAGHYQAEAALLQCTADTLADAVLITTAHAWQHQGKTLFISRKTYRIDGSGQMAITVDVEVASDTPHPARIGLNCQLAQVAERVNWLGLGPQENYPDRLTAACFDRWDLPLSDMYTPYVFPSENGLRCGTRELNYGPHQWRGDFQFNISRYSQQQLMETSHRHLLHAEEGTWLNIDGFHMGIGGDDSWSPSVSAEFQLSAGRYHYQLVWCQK
Experimental: as §1, §2

Sequence of bovine serum albumin (BSA) (P02769 25-607): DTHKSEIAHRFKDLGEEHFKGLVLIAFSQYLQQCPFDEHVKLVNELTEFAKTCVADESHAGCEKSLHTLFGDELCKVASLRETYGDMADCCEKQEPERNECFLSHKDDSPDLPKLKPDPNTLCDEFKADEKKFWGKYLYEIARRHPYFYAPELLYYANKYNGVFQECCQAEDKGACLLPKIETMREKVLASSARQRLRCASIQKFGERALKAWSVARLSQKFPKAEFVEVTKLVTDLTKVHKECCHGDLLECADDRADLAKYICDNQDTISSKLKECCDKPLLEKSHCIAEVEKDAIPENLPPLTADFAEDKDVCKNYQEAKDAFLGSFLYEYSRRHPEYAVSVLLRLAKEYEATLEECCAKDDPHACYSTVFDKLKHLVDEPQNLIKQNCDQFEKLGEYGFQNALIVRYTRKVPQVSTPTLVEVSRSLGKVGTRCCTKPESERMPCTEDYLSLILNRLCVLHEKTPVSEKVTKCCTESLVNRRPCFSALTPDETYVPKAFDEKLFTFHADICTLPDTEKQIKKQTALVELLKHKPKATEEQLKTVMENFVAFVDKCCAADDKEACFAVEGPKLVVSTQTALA

| SMILES | nonspecific labeling of BSA [1] | contrast for CT26.CL25 cells over CT26.WT ([2]; serum free medium, 2 hours, 37° C.) | mean intensity compared to NIR-BG2 ([2]; FIG. 5) | background by flow cytometry ([2]; compared with NIR-BG2) | fluorescence by flow cytometry ([2]; compared with NIR-BG2) | fluorescent intensity (FIG. 5A and FIG. 5C) ([2]; compared with NIR-BG2) | labeling efficiency (in gel fluorescence) [3] |
| --- | --- | --- | --- | --- | --- | --- | --- |
| CCC[N+]1=C(/C=C/C2=C3Oc4cc(OCc5ccc(O[C@@H]6OC(CO)[C@H](O)[C@H](O)C6O)cc5)c(COC(=O)NCC)cc4C=C3CCC2)C(C)(C)c2ccccc21 (stereo partly drawn) [NIR-BG3] | slightly higher nonspecific labeling of BSA | strong contrast | about 2 fold | higher background | overall higher fluorescence | much higher than NIR-BG2 | significantly higher labeling efficiency |
| CCC[N+]1=C(/C=C/C2=C3Oc4cc(OCc5ccc(O[C@@H]6OC(CO)[C@H](O)[C@H](O)C6O)cc5)c(COC(=O)N5CCCCC5)cc4C=C3CCC2)C(C)(C)c2ccccc21 (stereo partly drawn) [NIR-BG4] | slightly higher nonspecific labeling of BSA | – | – | – | – | – | significantly higher labeling efficiency |
